According to patent EP4458977A1, “SELF-ASSEMBLING PEPTIDE AMPHIPHILES AS RETROVIRAL TRANSDUCTION ENHANCERS” (Max-Planck-Gesellschaft zur Förderung der Wissenschaften …, priority 2023, dated 2024):
Where a SMILES comes first, the peptide text is derived from it. Where no end group is shown, it is not given here. [ ]: non-standard residue; d: D form. The star is where a group is joined. Palmitoyl = CCCCCCCCCCCCCCCC(=O)*

What was measured:
[1] = ATR-FT-IR determination of β-sheet content; type: physicochemical; conditions: 1 mg/mL in PBS lyophilized; integral at 1630 cm^-1 relative to 1650-1700 cm^-1
Experimental: ATR-FT-IR: ATR-IR spectra acquisition and the calculation of β-sheet content were conducted according prior art procedures. Briefly, FT-IR spectra of solid samples were recorded after lyophilization of fibril solutions using a Bruker Tensor II spectrometer equipped with a diamond crystal as ATR element with a spectral resolution of 2 cm^-1, each spectrum was an average of 64 scans. The data was processed with Origin software. β-sheet amount was determined by calculating the integral of the peak at 1630 cm-1 (β-sheet) relative to the integral between 1650-1700 cm-1 (native structure) from the 2nd derivative of the FT-IR spectra.

[2] = Fluorescence microscopy of ThT-stained fibrils (µm-sized aggregates); type: physicochemical; conditions: 1 mg/mL stained with 50 µM ThT
Experimental: (§1) Transmission electron microscopy (TEM) measurements, Thioflavin (ThT), zeta-potential measurements for fibril characterization were prepared and conducted according to prior art procedures. […] Fibrils were defined as distinct, if no visible structures could be identified in fluorescence and brightfield microscopy.
Fluorescence microscopy: 1 µL Fibrils (1 mg mL^-1) were stained with 9 µL, 50 µM ThT. 10 µL of the stained fibrils (0.1 mg mL^-1) were placed on a microscopy glass. Fluorescence microscopy measurements were performed on a Leica DMi8 microscope with 10x air objective and equipped with a Leica MC170 HD camera with a filter setting λem = 527/30 nm upon excitation at λex = 480/40 nm) and processed with the Leica LASX software.

[3] = test system: HIV-1; conditions: for enhancement of HIV-1 infection / transduction (in words): 6.5 µM, 1.3 µM, 0.26 µM;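 for all read-outs here: TZM-bl reporter cells exposed to HIV-1 with peptide fibrils, infection read out as β-galactosidase luminescence, compared with virus alone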
Experimental: HIV-1 Infection Assay with TZM-bl cells: The effect of peptide fibrils on HIV-1 infection was studied via a luminescence assay for β-galactosidase, which was reported by TZM-bl cells upon infection. The HIV-1 infection assay was conducted in three technical replicates and repeated in three independent experiments unless stated otherwise.

[4] = TEM of peptide assemblies (fibril formation / assembly); type: physicochemical; conditions: for TEM morphology (in words): 1 mg/mL in PBS
Experimental: The peptides were predissolved in DMSO to a concentration of 10 mg/mL. The fibril formation was induced by further diluting the solution to a final incubation concentration of 650 µM or 1 mg/mL in PBS as indicated in the text and incubated for 1 d (1 day) at rt (room temperature, 20 °C - 25 °C). Other concentrations as described herein were achieved by further dilution of preformed fibrils.
as §1

[5] = test system: HeLa cells; assay: Confocal laser scanning microscopy and degradation study with PA library and HeLa cells; type: cell-based; conditions: 2 µg added to 20.000 HeLa cells, 30 min
Experimental: In general, the procedure for determine whether a PA is degraded or not, is conducted by confocal laser scanning microscopy of Proteostat stained PAs which are added to Hela cells (2 µg peptide added to 20.000 cells). Microscopy is conducted at day 0 (d0, after 30 min of incubation) and at day 3 (d3, after 72 h of incubation). The number of aggregates >10 µm^2 is counted via 3D object counter in imaged in an area of 1008 µm × 1008 µm.
A PA is considered to be degradable if the number and the size of aggregates are reduced after 3 days. The efficiency is determined by the percentual degradation (aggregate number at d3 / aggregate number at d0). For the number of aggregation three technical replicates were evaluated for each sample. A large deviation represents a nonhomogeneous spatial distribution of aggregates.
Confocal laser scanning microscopy and degradation study with PA library and HeLa cells: Confocal laser scanning microscopy studies were performed for the visualization of the cell-PA interaction. HeLa cells were seeded one day prior to conducting the assay (20,000/well) in an 8-well IBIDI slide. […] The nucleus of the HeLa cells was stained with Hoechst 33342 (NucBlue™, Thermo Fisher Scientific). The peptide solution mixture was transferred to the HeLa cells and incubated for 30 min at 37°C before washing three times with PBS. […] For the evaluation of aggregate degradation, the samples were further incubated at 37°C for 3 d and analyzed without any additional washing step. […] The number of aggregates were determined by counting aggregates larger than the threshold 10 µm^2 in an area of 1008 × 1008 µm and repeated in three technical triplicates.

Row | Compound | β-sheet amount [1] | fluorescent, µm-sized aggregates (ThT staining) [2] | infectivity enhancement at 1.3 µM concentration compared to virus only infection (in words) [3] | TEM morphology (in words) [4] | enhancement of HIV-1 infection / transduction (in words) [3] | TEM morphology (in words) ([4]; listed as KGVPGVGK) | association with cellular membranes [5] | Infectivity enhancing N fold at 1.3 µM ([3]; relative to virus only) | Assembly without hydrophob residue ([4]; corresponding peptide without hydrophobic moiety) | Assembly ([4]; peptide amphiphile)
1 | WEALKK-NH2 [Pat36, WEALKK-NH2] | 31% | no fluorescent, µm-sized aggregates | cannot enhance infectivity | no fibrillar morphologies but amorphous aggregates | – | – | – | – | – | –
2 | KYIHQNYTKALAGKLV-NH2 [Pat45] | 34% | no fluorescent, µm-sized aggregates | – | no fibrillar morphologies | not potent enhancers of HIV-1 infection | – | – | – | – | –
3 | GGGSSKKK-NH2 [Pat47] | 10% | no fluorescent, µm-sized aggregates | – | no fibrillar morphologies | not potent enhancers of HIV-1 infection | – | – | – | – | –
4 | KGVPGVGK-NH2 [Pat44] | 22% | – | do not enhance infectivity | fibrillar morphologies | – | unexpectedly forming fibrils by themselves | – | – | – | –
5 | AQAKAK-NH2 [Pat35, AQAKAK-NH2] | 29% | no fluorescent, µm-sized aggregates | cannot enhance infectivity | no fibrillar morphologies but amorphous aggregates | – | – | – | – | – | –
6 | AKAVGK-NH2 [Pat50, AKAVGK-NH2] | 33% | no fluorescent, µm-sized aggregates | cannot enhance infectivity | no fibrillar morphologies but amorphous aggregates | – | – | – | – | – | –
7 | VVAAHHH-NH2 [Pat43, VVAAHHH-NH2] | 0% | no fluorescent, µm-sized aggregates | – | no fibrillar morphologies | not potent enhancers of HIV-1 infection | – | – | – | – | –
8 | ALAAGKK-NH2 [Pat39, ALAAGKK-NH2] | 0% | no fluorescent, µm-sized aggregates | cannot enhance infectivity | no fibrillar morphologies | – | – | – | – | – | –
9 | CC(C)[C@@H](N)C(=O)N[C@@H](C(=O)N[C@@H](C(=O)N[C@H](C)C(=O)N[C@H](C)C(=O)N[C@H](C)C(=O)N[C@H](CCCCN)C(=O)N[C@H](CCCCN)C(=O)N[C@H](CCCCN)C(N)=O)C(C)C)C(C)C [Pat33, vvvaaakkk-NH2] (H-[dV][dV][dV][dA][dA][dA][dK][dK][dK]-NH2) | 45% | no fluorescent, µm-sized aggregates | cannot enhance infectivity | no fibrillar morphologies but amorphous aggregates | – | – | – | – | – | –
10 | RRWQWR-NH2 [Pat41, RRWQWR-NH2] | 0% | – | cannot enhance infectivity | amorphous aggregates | – | – | no association with cellular membranes | – | – | –
11 | CCCCCCCCCCCCCCCC(=O)N[C@@H](CCCNC(=N)N)C(=O)N[C@@H](CCCNC(=N)N)C(=O)N[C@@H](Cc1c[nH]c2ccccc12)C(=O)N[C@@H](CCC(N)=O)C(=O)N[C@@H](Cc1c[nH]c2ccccc12)C(=O)N[C@@H](CCCNC(=N)N)C(N)=O [Pat22, C16-RRWQWR-NH2] (Palmitoyl-RRWQWR-NH2) | 0% | – | does not enhance infectivity | fibrillar morphologies | no infectivity enhancement can be observed | – | no association with cellular membranes | 0±0 N fold | No | Yes
